Experimental findings from patent publication US20260152503A1, “SPIROBICYCLIC COMPOUNDS” (ACERAND THERAPEUTICS (HONG KONG) LIMITED, priority 2022, published 2026) are described below.

The term IC50 denotes the concentration at which inhibition is half-maximal.

Molecules are shown by their SMILES.

One assay addresses T1, Ba/F3 FGFR2-N549K (Homo sapiens, UniProt P21802, N549K, cells depend on it).
T1 construct: fused on or other part: Q9H694 (Protein bicaudal C homolog 1)
The assay is described as follows: 2D cell proliferation assay, Ba/F3 FGFR2-N549K. The format is cell-based, mouse. Particulars: 96 hours, CTG, read-out: Cell Line, IC50 Ba/F3 FGFR2-N549K. The method, then:
(§1) Low IC50 values are indicative of the high potency of the FGFR inhibitor compounds in this assay selling. […] Cell proliferation assays are performed in two-dimensional (2D)) anchorage-dependent conditions in 96 well plates (Corning® Black/Clear flat Bottom, Cat #3603) with the following cell lines: • Ba/F3 FGFR2-BICC1 (human […]): Mouse Ba/F3 cell line stably expressed exogenous human FGFR2-BICC1 fusion gene bearing V546F mutation in FGFR2 Ba/F3; • FGFR2-BICC1 (human FGFR2/[…]): Mouse Ba/F3 cell line stably expressed exogenous human FGFR2-BICC1 fusion gene bearing N549K mutation in FGFR2; • Snu-16: human gastric cancer cell with FGFR2 amplification; • KATO III: human gastric cancer cell with FGFR2 amplification; • AN3CA: Human endometrial cancer with FGFR2 mutation (k310R, N549K); • MFM-223: Human breast cancer with FGFR1/2 amplification; • MFE-296: Human endometrial cancer with FGFR2 mutation (N549K); • MFE-280: Human endometrial cancer with FGFR2 mutation ([…]); • NCI-H1581: human non-small cell lung cancer with FGFR1 amplification; • KG-1a: Acute myelogenous leukemia with FGFR1OP2-FGFR1 translocation; • DMS114: human small cell carcinoma of the lung with FGFR1 amplification; • RT112: human bladder cancer with FGFR3 overexpression/FGFR3-TACC3 fusion; • SW780: human bladder cancer with FGFR3 overexpression/FGFR3-BALAP2L1 fusion; • Hep3B: Liver cancer with FGF19 amplification (FGFR4 ligand); • AGS: Human gastric adenocarcinoma with Kras G12D mutation and FGFR wild type; • PC-9: human non-small cell lung cancer (NSCLC) with wild-type FGFR and an EGFR del19 mutation; or • H1975: human non-small cell lung cancer (NSCLC) with wild-type FGFR and EGFR L858R/T790M mutation.
(§2) Cell lines are purchased from the American Type Culture Collection (ATCC) or Sigma. All cell lines are maintained in RPMI-1640 or DMEM supplemented with 10% heat-inactivated fetal bovine serum.
(§3) Cells growing in the log phase are detached with Gibco™ TrypLE™ Express Enzyme and plated in 96 well plate at 3000 to 5000 cells/well in 100 μl of media. After overnight incubation at 37° C., 5% CO2 incubator, cells are treated with compounds (50 uL/well) at the final concentrations spanning from 0.000038 uM to 10 μM (4-fold serial dilution for total of 10 points). Cells are incubated at 37° C., 5% CO2, and 95% humidity incubator for 96 hours. At the end of incubation 2D CTG reagent from Promega was added to each well according to vendors recommendation and mixed for 10 min in dark. The luminescence signals are determined with a Biotek™ plate reader. Data is fitted using a sigmoidal curve analysis program (GraphPad Prism®) with variable hill slope and IC50 is determined.

In the next assay the target is T2, FGFR1 (Homo sapiens, UniProt P11362).
T2 construct: DMS114 (FGFR1 amplification); host or cells: DMS114
Nature of the assay: pERK potency assay (In Cell ELISA), DMS114 cells. Format: cell-based. The following applies: DMS114 (FGFR1 amplification) cells, 3 hours. From the text:
(§4) The purpose of this assay is to measure the ability of test compounds to inhibit FGFR mediated downstream signaling cascades, i.e., ERK phosphorylation in cells with FGFR aberrations. FGFR aberrations become constitutively active and thus induces cascades of cellular signaling events that result in increased phosphorylation of ERK at Threonine 202 and Tyrosine 204 (pERK). The procedure called In Cell ELISA described below measures the level of cellular pERK in response to FGFR specific inhibitor compounds in FGFR aberrations of AN3CA (FGFR2/k310R, N549K), DMS114 (FGFR1 amplification), RT112 (FGFR3 overexpression/FGFR3-TACC3 fusion) and Hep3B (FGF19 amplification) cells. AN3CA, DMS114 and Hep3B cells are from ATCC. RT112 cells are from Sigma. DMS114 cells are grown and maintained using RPMI-1640 medium supplemented with 10% heat-inactivated fetal bovine serum. AN3CA, Hep3B and RT112 cells are grown and maintained using DMEM supplemented with 10% heat-inactivated fetal bovine serum. On the day before test compound addition, cells are plated in poly-D-lysine coated 96-well cell culture plates (Corning® BioCoat® Cat #356640) at 40000 cells/well/100 μL and grown overnight in a 37° C., 5% CO2 incubator. Test compounds are prepared with 4-fold serial dilutions in DMSO, with a top concentration of 10 μM. On the day of the assay, 50 μL of test compound diluted in media was added to each well of cell culture plate with the final concentration of compounds spanning from 0.000038 μM to 10 μM. After compound addition, cells are incubated for 3 hours at 37° C., 5% CO2 and then the culture medium is removed. Cells are fixed with 4% formaldehyde in phosphate-buffered saline (PBS) and incubated at RT for 20 min. The plate is then washed three times with PBST (PBS with 0.05% tween-20), followed by the incubation with 100 μL of pre-cooled methanol at −20° C. for 20 min. After incubation, methanol is removed, and the plate is washed once with PBST. Cells are permeabilized with 100 µL/well of 0.1% Triton X-100 in PBS at RT for 20 min and then quenched with quenching buffer (PBST containing 1% H2O2 and 0.1% sodium azide) for 20 min at RT with gentle shaking. After washing once with PBST, blocking buffer (250 ul/well, Pierce™ Protein-Free-PBS Blocking Buffer, Cat #37572) was then added to the cells for 1-h incubation at RT, followed by anti-pERK antibody (cell signaling, 1:1000 dilution in 5% BSA in PBST) incubation overnight at 4° C. and secondary antibody-HRP (Jackson immunoresearch, 1:3000 dilution in 5% BSA in PBST) incubation at RT for 1 h. PBST wash is carried out after each step three times. Before the addition of the substrate (Advansta ELISABright), the plate is washed with PBS twice to remove detergent residues. Cellular pERK level is determined using the microplate reader (Biotek Synergy H1) to detect the chemiluminescence signal. IC50 is determined by fitting a 4-parameter sigmoidal concentration-response model. FGFR wild type cells (H1975, PC-9 and AGS) are used to serve as negative control (FGFR selectivity) with the same assay procedures described above.
A general note: In an ELISA, binding on a coated surface is turned into a signal by an enzyme label.

Another assay concerns the target T3, Ba/F3 FGFR2-V564F (Homo sapiens, UniProt P21802, V564F, cells depend on it).
T3 construct: fused on or other part: Q9H694 (Protein bicaudal C homolog 1)
The assay is described as follows: 2D cell proliferation assay, Ba/F3 FGFR2-V564F. The format is cell-based, mouse. Particulars: 96 hours, CTG, read-out: Cell Line, IC50 Ba/F3 FGFR2-V564F. As to the method: as §1, §2, §3

A further assay concerns the target T4, FGFR2 (Homo sapiens, UniProt P21802, K310R/N549K).
T4 construct: in FGFR aberrations of AN3CA (FGFR2/k310R, N549K); host or cells: AN3CA
The assay is described as follows: pERK potency assay (In Cell ELISA), AN3CA cells. Format: cell-based. The following applies: for IC50: pERK, AN3CA (FGFR2/k310R, N549K) cells, 3 hours; for FGFR1 IC50/FGFR2 IC50 / FGFR3 IC50/FGFR2 IC50: selectivity ratio, pERK potency; for FGFR1 IC50/FGFR2 IC50: FGFR2 relative to FGFR1; for FGFR3 IC50/FGFR2 IC50: FGFR2 relative to FGFR3.
Source text: as §4

For a further assay, the target named is T5, FGFR3 (Homo sapiens, UniProt P22607).
T5 construct: RT112 (FGFR3 overexpression/FGFR3-TACC3 fusion); host or cells: RT112; the other entry of the earlier key: TACC3 (Q9Y6A5, Transforming acidic coiled-coil-containing protein 3)
The assay is described as follows: pERK potency assay (In Cell ELISA), RT112 cells. Particulars: RT112 (FGFR3 overexpression/FGFR3-TACC3 fusion) cells, 3 hours. Format: cell-based.
Source text: as §4

T3 sequence (P21802 whole entry V564F, the tested form may be a part): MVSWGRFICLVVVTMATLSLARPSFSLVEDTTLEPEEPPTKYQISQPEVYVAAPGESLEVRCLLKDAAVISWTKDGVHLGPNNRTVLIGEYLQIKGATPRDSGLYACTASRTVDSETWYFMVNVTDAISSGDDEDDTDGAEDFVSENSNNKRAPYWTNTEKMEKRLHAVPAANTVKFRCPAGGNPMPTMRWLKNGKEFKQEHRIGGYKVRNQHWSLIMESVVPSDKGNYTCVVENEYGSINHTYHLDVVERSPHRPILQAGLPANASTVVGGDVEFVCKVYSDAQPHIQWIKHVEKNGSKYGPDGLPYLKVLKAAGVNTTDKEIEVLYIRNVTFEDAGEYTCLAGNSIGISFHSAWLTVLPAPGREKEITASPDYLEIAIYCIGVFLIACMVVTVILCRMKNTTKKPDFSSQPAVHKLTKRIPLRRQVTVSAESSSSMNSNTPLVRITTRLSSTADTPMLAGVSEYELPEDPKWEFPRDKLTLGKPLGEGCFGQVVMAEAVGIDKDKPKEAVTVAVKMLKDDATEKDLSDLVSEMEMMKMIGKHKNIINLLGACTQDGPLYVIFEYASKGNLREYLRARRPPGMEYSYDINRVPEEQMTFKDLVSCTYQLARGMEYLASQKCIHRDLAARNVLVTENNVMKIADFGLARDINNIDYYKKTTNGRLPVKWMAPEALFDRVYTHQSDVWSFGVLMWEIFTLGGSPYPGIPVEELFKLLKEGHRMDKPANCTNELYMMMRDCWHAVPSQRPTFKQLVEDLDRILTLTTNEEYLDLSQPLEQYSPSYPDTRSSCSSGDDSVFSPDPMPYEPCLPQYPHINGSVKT
T2 sequence (P11362 22-822): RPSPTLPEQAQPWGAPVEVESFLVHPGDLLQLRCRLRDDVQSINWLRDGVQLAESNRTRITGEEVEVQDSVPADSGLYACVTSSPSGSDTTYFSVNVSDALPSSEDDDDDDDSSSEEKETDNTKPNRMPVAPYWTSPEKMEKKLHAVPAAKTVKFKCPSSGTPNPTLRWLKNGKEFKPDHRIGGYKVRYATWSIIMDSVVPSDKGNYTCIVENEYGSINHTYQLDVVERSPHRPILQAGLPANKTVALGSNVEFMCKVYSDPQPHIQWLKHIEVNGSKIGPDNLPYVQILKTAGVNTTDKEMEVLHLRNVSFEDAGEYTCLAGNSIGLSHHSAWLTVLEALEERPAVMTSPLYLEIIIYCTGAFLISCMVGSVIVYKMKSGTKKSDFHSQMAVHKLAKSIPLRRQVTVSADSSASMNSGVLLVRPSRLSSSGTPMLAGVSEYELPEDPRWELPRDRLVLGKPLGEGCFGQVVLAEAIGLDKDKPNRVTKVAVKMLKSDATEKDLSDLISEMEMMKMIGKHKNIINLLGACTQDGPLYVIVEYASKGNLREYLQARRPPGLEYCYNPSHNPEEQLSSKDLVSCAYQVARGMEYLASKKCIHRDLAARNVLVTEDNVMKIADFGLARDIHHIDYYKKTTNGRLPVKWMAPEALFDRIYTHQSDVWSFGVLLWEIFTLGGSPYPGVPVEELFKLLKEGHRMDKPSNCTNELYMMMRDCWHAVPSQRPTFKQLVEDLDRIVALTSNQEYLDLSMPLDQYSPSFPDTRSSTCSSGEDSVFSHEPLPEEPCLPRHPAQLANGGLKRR
T1 sequence (P21802 whole entry N549K, the tested form may be a part): as the sequence (P21802 whole entry V564F, the tested form may be a part) above, with N549K, F564V counted along it
T4 sequence (P21802 22-821 K310R/N549K): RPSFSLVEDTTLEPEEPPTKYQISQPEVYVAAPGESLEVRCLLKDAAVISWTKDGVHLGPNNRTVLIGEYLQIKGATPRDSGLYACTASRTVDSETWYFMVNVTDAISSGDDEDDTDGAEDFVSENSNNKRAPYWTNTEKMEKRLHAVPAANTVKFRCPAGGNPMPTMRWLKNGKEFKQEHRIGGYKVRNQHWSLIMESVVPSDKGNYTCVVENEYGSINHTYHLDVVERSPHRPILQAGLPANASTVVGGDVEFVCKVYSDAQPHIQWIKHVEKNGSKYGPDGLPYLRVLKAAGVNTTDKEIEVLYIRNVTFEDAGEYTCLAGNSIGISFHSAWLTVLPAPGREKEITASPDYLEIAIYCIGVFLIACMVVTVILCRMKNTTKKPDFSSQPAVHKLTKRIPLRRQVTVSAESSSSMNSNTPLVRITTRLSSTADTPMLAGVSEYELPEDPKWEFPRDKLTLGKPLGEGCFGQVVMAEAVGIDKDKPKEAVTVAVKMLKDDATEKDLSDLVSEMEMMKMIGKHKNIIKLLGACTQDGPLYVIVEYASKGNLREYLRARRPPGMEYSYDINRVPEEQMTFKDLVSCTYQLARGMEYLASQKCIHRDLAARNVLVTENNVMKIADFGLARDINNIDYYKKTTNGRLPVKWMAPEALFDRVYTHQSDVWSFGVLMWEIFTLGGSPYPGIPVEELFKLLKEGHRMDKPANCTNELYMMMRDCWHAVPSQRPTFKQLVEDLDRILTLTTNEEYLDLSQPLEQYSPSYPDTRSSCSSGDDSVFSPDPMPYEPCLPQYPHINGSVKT

`C=CC(=O)N1CCC2(CC=C(c3c(-c4ncc(OC)cn4)c4c(N)ncnc4n3C)CC2)CC1` [Example 43, 1-(9-(4-amino-5-(5-methoxypyrimidin-2-yl)-7-methyl-7H-pyrrolo[2,3-d]pyrimidin-6-yl)-3-azaspiro[5.5]undec-8-en-3-yl)prop-2-en-1-one]: the GI50 on Ba/F3 FGFR2-N549K is 1 to 10 nM; at Ba/F3 FGFR2-V564F it was ≤ 1 nM. Also, the IC50 on FGFR1 is > 100 nM; at FGFR2 it was ≤ 1 nM; on FGFR3 it was > 100 nM. In addition, the “FGFR1 IC50/FGFR2 IC50” value on FGFR2 is “H (a selectivity ratio greater than 500 but less than or equal to 1000)”. Further, at FGFR2, the “FGFR3 IC50/FGFR2 IC50” value is listed as “J (a selectivity ratio greater than 2000)”.
In the case of `C=CC(=O)N1CCC2(CC=C(c3c(-c4ncc(F)cn4)c4c(N)ncnc4n3C)CC2)CC1` [Example 44, 1-(9-(4-amino-5-(5-fluoropyrimidin-2-yl)-7-methyl-7H-pyrrolo[2,3-d]pyrimidin-6-yl)-3-azaspiro[5.5]undec-8-en-3-yl)prop-2-en-1-one], the GI50 at Ba/F3 FGFR2-N549K is 1 to 10 nM; on Ba/F3 FGFR2-V564F it was ≤ 1 nM. For the same compound, the IC50 at FGFR1 was > 100 nM; at FGFR2, 1 to 10 nM; at FGFR3, > 100 nM. On FGFR2, the “FGFR1 IC50/FGFR2 IC50” value is “H (a selectivity ratio greater than 500 but less than or equal to 1000)”. Besides, on FGFR2, the “FGFR3 IC50/FGFR2 IC50” value was “J (a selectivity ratio greater than 2000)”.
For the compound `C=CC(=O)N1CCC2(CC=C(c3c(-c4ncc(C5CC5)cn4)c4c(N)ncnc4n3C)CC2)CC1` [Example 45, 1-(9-(4-amino-5-(5-cyclopropylpyrimidin-2-yl)-7-methyl-7H-pyrrolo[2,3-d]pyrimidin-6-yl)-3-azaspiro[5.5]undec-8-en-3-yl)prop-2-en-1-one], the GI50 on Ba/F3 FGFR2-N549K and on Ba/F3 FGFR2-V564F was 1 to 10 nM each time. Also, the IC50 was > 100 nM at FGFR1, ≤ 1 nM at FGFR2 and > 100 nM at FGFR3. The “FGFR1 IC50/FGFR2 IC50” value on FGFR2 is given as “G (a selectivity ratio greater than 150 but less than or equal to 500)”. Further, the “FGFR3 IC50/FGFR2 IC50” value on FGFR2 is given as “H (a selectivity ratio greater than 500 but less than or equal to 1000)”.
As for `C=CC(=O)N1CCC2(CC=C(c3c(-c4ncc(OC5CCOC5)cn4)c4c(N)ncnc4n3C)CC2)CC1` (centres unmarked) [Example 47, 1-(9-(4-amino-7-methyl-5-(5-((tetrahydrofuran-3-yl)oxy)pyrimidin-2-yl)-7H-pyrrolo[2,3-d]pyrimidin-6-yl)-3-azaspiro[5.5]undec-8-en-3-yl)prop-2-en-1-one], the GI50 on Ba/F3 FGFR2-N549K and on Ba/F3 FGFR2-V564F was > 100 nM each time. Besides, the IC50 was > 100 nM on FGFR1, ≤ 1 nM on FGFR2 and > 100 nM at FGFR3. For the same compound, on FGFR2, the “FGFR1 IC50/FGFR2 IC50” value is listed as “G (a selectivity ratio greater than 150 but less than or equal to 500)”. For the same compound, the “FGFR3 IC50/FGFR2 IC50” value at FGFR2 is listed as “I (a selectivity ratio greater than 1000 but less than or equal to 2000)”.
Take `C=CC(=O)N1CCC2(CC=C(c3c(C4COC4)c4c(N)ncnc4n3C)CC2)CC1` [Example 55, 1-(9-(4-amino-7-methyl-5-(oxetan-3-yl)-7H-pyrrolo[2,3-d]pyrimidin-6-yl)-3-azaspiro[5.5]undec-8-en-3-yl)prop-2-en-1-one]: the figures for the IC50 at FGFR1, at FGFR2 and on FGFR3 were 10 to 30 nM, ≤ 1 nM and 30 to 100 nM, respectively. Besides, the “FGFR3 IC50/FGFR2 IC50” value at FGFR2 is recorded as “F (a selectivity ratio greater than 50 but less than or equal to 150)”.
The corresponding values for `C=CC(=O)N1CCC2(CC=C(c3c(-c4ccncn4)c4c(N)ncnc4n3C)CC2)CC1` [Example 60, 1-(9-(4-amino-7-methyl-5-(pyrimidin-4-yl)-7H-pyrrolo[2,3-d]pyrimidin-6-yl)-3-azaspiro[5.5]undec-8-en-3-yl)prop-2-en-1-one] are > 100 nM, 10 to 30 nM, > 100 nM and “F (a selectivity ratio greater than 50 but less than or equal to 150)”.
Take `C=CC(=O)N1CCC2(CC=C(c3c(-c4cccnn4)c4c(N)ncnc4n3C)CC2)CC1` [Example 61, 1-(9-(4-amino-7-methyl-5-(pyridazin-3-yl)-7H-pyrrolo[2,3-d]pyrimidin-6-yl)-3-azaspiro[5.5]undec-8-en-3-yl)prop-2-en-1-one]: the IC50 is > 100 nM at FGFR1, 10 to 30 nM on FGFR2 and > 100 nM on FGFR3. For the same compound, the “FGFR1 IC50/FGFR2 IC50” value on FGFR2 is recorded as “G (a selectivity ratio greater than 150 but less than or equal to 500)”. Moreover, the “FGFR3 IC50/FGFR2 IC50” value at FGFR2 was “G (a selectivity ratio greater than 150 but less than or equal to 500)”.
